Data taken from patent US12617837B2, “Composition for use in treatment of allergic diseases” (UNIVERSITY OF TSUKUBA, priority 2019, dated 2026).

T1: Clec10a-Fc (Mus musculus, UniProt P49300)
T1 construct: cloning the extracellular region of mouse Clec10a into a pME18S expression vector; made in house; host or cells: HEK293T cells
T1 sequence (P49300 57-304 limits assumed): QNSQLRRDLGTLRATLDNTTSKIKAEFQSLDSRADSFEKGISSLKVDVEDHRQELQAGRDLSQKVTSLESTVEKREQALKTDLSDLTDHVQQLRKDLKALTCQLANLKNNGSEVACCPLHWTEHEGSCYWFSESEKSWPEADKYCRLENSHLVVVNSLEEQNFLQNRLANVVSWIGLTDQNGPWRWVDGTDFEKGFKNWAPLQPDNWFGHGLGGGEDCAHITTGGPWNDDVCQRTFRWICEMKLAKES

T2: mouse Clec10a (Mus musculus, UniProt P49300)
T2 construct: an extracellular and transmembrane portions of Clec10a fused to a cytoplasmic portion of CD3; expressed in transfected cells; host or cells: 2B4-NFAT-GFP reporter cells, pMXs-puro retroviral vector
T2 sequence (P49300 57-304 limits assumed): T1 sequence (P49300 57-304 limits assumed)

B1: AAL (protein, UniProt P18891 2-313, looked up)
Fucose-specific lectin: PTEFLYTSKIAAISWAATGGRQQRVYFQDLNGKIREAQRGGDNPWTGGSSQNVIGEAKLFSPLAAVTWKSAQGIQIRVYCVNKDNILSEFVYDGSKWITGQLGSVGVKVGSNSKLAALQWGGSESAPPNIRVYYQKSNGSGSSIHEYVWSGKWTAGASFGSTVPGTGIGATAIGPGRLRIYYQATDNKIREHCWDSNSWYVGGFSASASAGVSIAAISWGSTPNIRVYWQKGREELYEAAYGGSWNTPGQIKDASRPTPSLPDTFIAANSSGNIDISVFFQASGVSLQQWQWISGKGWSIGAVVPTGTPAGW
B2: PNA (protein, UniProt P02872 24-273, looked up)
Galactose-binding lectin: AETVSFNFNSFSEGNPAINFQGDVTVLSNGNIQLTNLNKVNSVGRVLYAMPVRIWSSATGNVASFLTSFSFEMKDIKDYDPADGIIFFIAPEDTQIPAGSIGGGTLGVSDTKGAGHFVGVEFDTYSNSEYNDPPTDHVGIDVNSVDSVKTVPWNSVSGAVVKVTVIYDSSTKTLSVAVTNDNGDITTIAQVVDLKAKLPERVKFGFSASGSLGGRQIHLIRSWSFTSTLITTTRRSIDNNEKKIMNMASA
B3: rPAIL (protein, UniProt Q05097 2-122, looked up)
PA-I galactophilic lectin: AWKGEVLANNEAGQVTSIIYNPGDVITIVAAGWASYGPTQKWGPQGDREHPDQGLICHDAFCGALVMKIGNSGTIPVNTGLFRWVAPNNVQGAITLIYNDVPGTYGNNSGSFSVNIGKDQS

Tests used:
human IgG1 = assay: Glycan microarray probed with human IgG1 (control of Table 7); format: binding
Clec10a-Fc = molecular target: T1, Clec10a-Fc; assay: Sugar conjugate (glycan) microarray analysis of Clec10a-Fc (Table 7); format: binding; settings: for Signal value, Clec10a-Fc: glycan microarray probed with Clec10a-Fc; for Signal value, Clec10a-Fc with EDTA: glycan microarray probed with Clec10a-Fc with EDTA
Procedure: A sugar conjugate microarray containing 98 sugar conjugates (Table 3) was prepared according to a known method using a non-contact microarray printing robot (MicroSys 4000; Genomic Solutions).

[1] = test system: lectins (96 lectins of Table 2); assay: Lectin microarray analysis of Clec10a ligand in HDM (Table 6); format: binding; settings: for Signal value, Target: Target: Pull-down assay sample from HDM using Clec10a-Fc (Clec10a ligand), signal at each lectin spot of the lectin microarray
Procedure: Lectin microarrays were made using a non-contact microarray printing robot (MicroSys4000; Genomic Solutions) according to the previous method. Samples were fluorescently labeled with Cy3 Mono-Reactive dye (Ge) and excess Cy3 was removed using a Sephadex g-25 desalting column (Ge). After 10 fold dilution with a probe solution (25 mM Tris-HCl, pH 7.5, 140 mM NaCl) (TBS) containing 2.7 mM KCl, 1 mM CaCl2, 1 mM MnCl2, and 1% Triton X-100, a Cy3-labeled sample was applied to a lectin microarray and incubated at 20° C. overnight. The sample was washed with a probe solution, and a fluorescence image was obtained using an evanescent-field activated fluorescence scanner (Bio-Rad scan 200, Rexxam Co. Ltd.). Lectin signals in triplicate spots were averaged for each protein sample and normalized to an average value of 96 lectins.

mouse Clec10a = molecular target: T2, mouse Clec10a; assay: Mouse Clec10a-CD3ζ NFAT-GFP reporter cell assay; format: cell-based; settings: stimulation with coated plates, 18 hours, flow cytometry
Procedure: The intracellular region of human CD3ζ was obtained from a vector provided by LL Lanier (University of California, San Francisco). The extracellular region of mouse or human Clec10a or the extracellular region of human Asgr1 was subcloned into a pMXs-puro retroviral vector. 2B4-NFAT-GFP reporter cells were provided from H. Arase (University of Osaka). 2B4-NFAT-GFP reporter cells stably expressing mouse or human Clec10a were made as described previously. The reporter cells were incubated for 18 hours in the presence or absence of anti-Clec10a mAb, Lewis X (GlycoTech), Lewes Y (GlycoTech), galactose (Sigma-Aldrich), glucose (Sigma-Aldrich) or mannose (Sigma-Aldrich). The reporter cells were also cultured on a galactosidase (R & D Systems, 5704 GH or 5549 GH) or glucosidase (R & D Systems, 8329-GH), or Clec10 ligand-coated plate, or an HDM extract-coated plate treated with size-fractionated Clec10a ligand or untreated. Activation of NFAT-GFP was monitored by flow cytometry.
To test whether Clec10a recognized glycosylated proteins contained in HDM, NFAT-GFP reporter cells (Clec10a reporter cells) were made which expressed chimeric fusion proteins inch ling an extracellular and transmembrane portions of Clec10a fused to a cytoplasmic portion of CD3.

Molecule | Signal value, human IgG1 (human IgG1) | Signal value, Clec10a-Fc (Clec10a-Fc) | Signal value, Clec10a-Fc with EDTA (Clec10a-Fc) | Signal value, Target [1] | Binding to lectins in lectin microarray ([1]; Cy3-labeled sample) | GFP expression in mouse Clec10a reporter cells (mouse Clec10a)
rGal7 | 0 | 0 | 0 | 0 |  | 
Clec10a |  |  |  |  | most strongly bound to the lectins of Maclura pomifera (MPA) | 
CC(=O)N[C@@H]1[C@@H](O[C@@H]2O[C@@H](C)[C@@H](O)[C@@H](O)[C@@H]2O)[C@H](O[C@@H]2O[C@H](CO)[C@H](O)[C@H](O)[C@H]2O)[C@@H](CO)O[C@H]1O [Lewis X, reference compound] |  |  |  |  |  | expressed GFP
PHAL | 0 | 0 | 0 | 0 |  | 
Galβ.1-4(Fucα 1-3)GlcNAcβ 1-PAA [LeX] | 0 | 2535 | 0 |  |  | activated Clec10a in a dose-dependent manner
rMalectin | 0 | 0 | 0 | 0 |  | 
CC(=O)N[C@H]1[C@H]([C@H](O)[C@H](O)CO)O[C@@](OC[C@H]2O[C@@H](O[C@H]3[C@H](O)[C@@H](O)[C@H](O)O[C@@H]3CO)[C@H](O)[C@@H](O)[C@H]2O)(C(=O)O)C[C@@H]1O [6′SL] | 0 | 1 | 0 |  |  | 
CC(=O)N[C@@H]1[C@@H](O[C@@H]2O[C@H](CO)[C@H](O)[C@H](OS(=O)(=O)O)[C@H]2O)[C@H](O)[C@@H](CO)O[C@H]1O [[3′S]Lec] | 0 | 0 | 0 |  |  | 
CC(=O)N[C@@H]1[C@@H](O)[C@H](O[C@@H]2O[C@H](CO)[C@H](O)[C@H](O)[C@H]2O[C@@H]2O[C@@H](C)[C@@H](O)[C@@H](O)[C@@H]2O)[C@@H](CO)O[C@H]1O [H type2] | 0 | 0 | 0 |  |  | 
CC(=O)N[C@@H]1[C@@H](O[C@@H]2O[C@H](CO)[C@H](O)[C@H](O[C@]3(C(=O)O)C[C@H](O)[C@@H](NC(C)=O)[C@H]([C@H](O)[C@H](O)CO)O3)[C@H]2O)[C@H](O[C@@H]2O[C@@H](C)[C@@H](O)[C@@H](O)[C@@H]2O)[C@@H](CO)O[C@H]1O [sLea] | 0 | 0 | 0 |  |  | 
Galβ 1-3(Fucα 1-4)GlcNAcβ 1-PAA [LeA] | 0 | 5532 | 0 |  |  | activated Clec10a in a dose-dependent manner
CC(=O)N[C@H]1[C@H]([C@H](O)[C@H](O)CO)O[C@@](O)(C(=O)O)C[C@@H]1O [Ne̊u5Ac] | 0 | 0 | 0 |  |  | 
CC(=O)N[C@@H]1[C@@H](O)[C@@H](O)[C@@H](CO)O[C@H]1O [βGalNAc] | 0 | 6 | 0 |  |  | 
CC(=O)N[C@H]1[C@H]([C@H](O)[C@H](O)CO)O[C@@](O[C@H]2[C@@H](O)[C@@H](CO)O[C@@H](O[C@H]3[C@H](O)[C@@H](O)[C@H](O)O[C@@H]3CO)[C@@H]2O)(C(=O)O)C[C@@H]1O [3′SL] | 0 | 5 | 0 |  |  | 
OC[C@H]1O[C@H](O[C@@H]2[C@@H](O)[C@H](O)O[C@H](CO)[C@@H]2O)[C@H](O)[C@@H](O)[C@H]1O [Galα1-3Gal] | 0 | 144 | 0 |  |  | 
CC(=O)N[C@@H]1[C@@H](O[C@@H]2O[C@H](CO)[C@H](O)[C@H](O)[C@H]2O)[C@@H](O)[C@@H](CO[C@]2(C(=O)O)C[C@H](O)[C@@H](NC(C)=O)[C@H]([C@H](O)[C@H](O)CO)O2)O[C@@H]1O [Siaα2-6Core 1] | 0 | 0 | 0 |  |  | 
CC(=O)N[C@@H]1[C@@H](O)[C@H](O[C@@H]2O[C@@H](C)[C@@H](O)[C@@H](O)[C@@H]2O)[C@@H](CO)O[C@H]1O [Fucα4GlcNAc] | 0 | 0 | 0 |  |  | 
CC(=O)N[C@@H]1[C@@H](O)[C@H](O[C@@H]2O[C@H](CO)[C@H](O)[C@H](O)[C@H]2O)[C@@H](CO)O[C@H]1O [LN] | 0 | 7 | 0 |  |  | 
CC(=O)N[C@@H]1[C@@H](O[C@H]2O[C@H](CO)[C@H](O)[C@H](O)[C@H]2NC(C)=O)[C@@H](O)[C@@H](CO)O[C@H]1O [Forssman disaccharide] | 0 | 0 | 0 |  |  | 
CC(=O)N[C@@H]1[C@@H](O)[C@H](O)[C@@H](COS(=O)(=O)O)O[C@H]1O [[6S]BGlcNAc] | 318 | 0 | 0 |  |  | 
CC(=O)N[C@@H]1[C@@H](O)[C@H](O[C@@H]2O[C@H](CO)[C@H](O)[C@H](O[C@]3(C(=O)O)C[C@H](O)[C@@H](NC(C)=O)[C@H]([C@H](O)[C@H](O)CO)O3)[C@H]2O)[C@@H](CO)O[C@H]1O [3′SLN] | 0 | 7 | 0 |  |  | 
CC(=O)N[C@@H]1[C@@H](O[C@@H]2O[C@H](CO)[C@H](O)[C@H](O)[C@H]2O[C@@H]2O[C@@H](C)[C@@H](O)[C@@H](O)[C@@H]2O)[C@H](O)[C@@H](CO)O[C@H]1O [H type1] | 0 | 1 | 0 |  |  | 
CC(=O)N[C@@H]1[C@@H](O[C@@H]2O[C@H](CO)[C@H](O)[C@H](O)[C@H]2O)[C@@H](O)[C@@H](CO[C@@H]2O[C@H](CO)[C@@H](O)[C@H](O)[C@H]2NC(C)=O)O[C@@H]1O [Core2] | 0 | 4824 | 0 |  |  | 
B1 |  |  |  | 7508 |  | 
B2 |  |  |  | 10699 |  | 
B3 | 0 | 0 | 0 | 0 |  | 
